Test results from PMC7582725, “Suppression of hTAS2R16 Signaling by Umami Substances” (International Journal of Molecular Sciences, 2020).
Positions count from the first letter of the chain named. Several values for one entry are separate records, joined by “and”; a condition that tells them apart may be missing. Equal values may be shown once. Where a name gives a salt, the structure may show the parent alone. Read-outs that look alike come from different tables or passages of the source. Blank lines part the entries; values can stand above or below the compound they belong to. Where a SMILES comes first, the peptide text is derived from it.

Assays:
hTAS2R16 [1] = target: T1, hTAS2R16 (Homo sapiens, UniProt Q9NYV7); test: Cellular Ca2+ response, cell-based assay (Calcium-4, FlexStation III) in HEK293T cells co-expressing wild-type hTAS2R16 and G16αgust44; settings: for synergistic effect with IMP on suppression of salicin response: 10 mM salicin, graded IMP below or at 10 mM; for mechanism of antagonism at hTAS2R16: from salicin concentration–response curves at graded antagonist concentrations
T1 construct: expressed in transfected cells; host or cells: HEK293T
T1 sequence (Q9NYV7 1-291): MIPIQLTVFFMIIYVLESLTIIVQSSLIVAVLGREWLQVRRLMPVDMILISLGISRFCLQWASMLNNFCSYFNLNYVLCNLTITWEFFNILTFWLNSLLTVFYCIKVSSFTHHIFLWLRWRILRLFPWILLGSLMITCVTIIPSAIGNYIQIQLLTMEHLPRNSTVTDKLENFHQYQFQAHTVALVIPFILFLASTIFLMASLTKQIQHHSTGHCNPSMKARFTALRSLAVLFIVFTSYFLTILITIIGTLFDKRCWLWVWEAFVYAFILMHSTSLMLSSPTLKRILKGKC
Procedure: (§1) HEK293T cells were purchased from American Type Culture Collection (ATCC; Manassas, VA, USA) and cultured as described previously. The plasmids hTAS2R16 and G16αgust44 were constructed as described previously. G16αgust44 and hTAS2R16 were cloned into a cytomegalovirus promoter-based vector and expressed constitutively. Point mutants of N96T and P44T on hTAS2R16 clone and DNA sequencings were performed by Macrogen (Geumcheon-gu, Seoul, Korea). The hTAS2R16 or point mutant expression plasmid was co-transfected with G16αgust44 expression plasmid (4:1) into HEK293T cells using Lipofectamine 2000 (Invitrogen, Carlsbad, CA, USA).
(§2) The umami substances-induced changes in the cytosolic Ca^2+ concentration were measured using a FlexStation III microplate reader (Molecular Devices, Sunnyvale, CA, USA). HEK293T cells transfected with hTAS2R16 were seeded onto 96-well black-wall CellBind surface plates (Corning, NY, USA) for 18–24 h before use. […] The cells were incubated in the dark for 30 min at 37 °C, and then for 15 min at 27 °C in assay buffer consisting of Calcium-4 (FLIPR Calcium 4 Assay Kit, Molecular Devices) and probenecid or the umami compounds. Following treatment, the fluorescence intensity (excitation, 486 nm; emission, 525 nm) of the cell was measured. The relative changes in cell Ca^2+ were plotted as ΔF/F0 on the y-axis, where ΔF is the change in Calcium-4 fluorescence intensity at each time point and F0 is the fluorescence intensity before treatment. The relative response induced by 10 mM salicin was assigned a value of 100.

hTAS2R16 P44T = target: T2, hTAS2R16 P44T (Homo sapiens, UniProt Q9NYV7, P44T); test: Cellular Ca2+ response, cell-based assay in HEK293T cells expressing probenecid-insensitive mutant hTAS2R16 P44T
T2 construct: expressed in transfected cells; host or cells: HEK293T
T2 sequence (Q9NYV7 1-291 P44T): T1 sequence (Q9NYV7 1-291) with P44T
Procedure: as §1, §2

umami taste [2] = settings: cited from earlier work
umami taste [3] = test: Human sensory evaluation of umami taste (literature); assay type: in vivo; settings: from cited thresholds
hTAS2R16 [4] = target: T1, hTAS2R16; test: Ca2+ response of hTAS2R16-expressing HEK293T cells to bitter ligands in absence and presence of umami substances (Figure 1; fura-2 F340/F380 imaging / cell-based assay); settings: for inhibition of Ca2+ response to arbutin: 5 mM arbutin; for inhibition of Ca2+ response to arbutin / inhibition of Ca2+ response to phenyl β-D-glucopyranoside: MSG 80 mM, IMP 20 mM, L-theanine 80 mM; for inhibition of Ca2+ response to arbutin / reduction of intracellular Ca2+ influx evoked by salicin / inhibition of Ca2+ response to phenyl β-D-glucopyranoside: Glu-Glu 6 mM, Gly-Gly 6 mM; for reduction of intracellular Ca2+ influx evoked by salicin: 10 mM salicin, MSG 10 and 80 mM, IMP 10 and 20 mM, L-theanine 10 and 80 mM, probenecid 0.1 and 0.3 mM; for Ca2+ response of cells expressing TAS2R16 on stimulation with ligand: Figure 1D,E
Procedure: We first verified if non-peptide umami substances affect the downstream signaling mechanism, such as changes in intracellular Ca^2+ of the human bitter taste receptor. […] The increase in fluorescence intensity ratio (F340/F380) with 10 mM salicin was expressed as 100. […] In addition to salicin, hTAS2R16 also recognizes bitter sugars such as phenyl β-D-glucopyranoside and arbutin, a glycosylated hydroquinone extracted from the bearberry plant in the genus Arctostaphylos.
(A) Chemical structures of tested compounds. Summarized data (B) and representative traces (C) showing responses of HEK293T cells co-expressing hTAS2R16 and Gα16gust44 to 10 mM salicin in the absence and presence of umami substances in a cell-based assay. (D,E) Representative ratiometric images of fura-2-loaded hTAS2R16-expressing cells in response to the other ligands, 5 mM arbutin (D) or phenyl β-D-glucopyranoside (E), in the presence of umami substances. The data were normalized as percentages to the maximal signal obtained with the ligands. The color scale indicates the F340/F380 ratio. Scale bar: 11.04 μm. Data are presented as means ± standard error of the mean (SEM) of at least three separate experiments. * p < 0.05, ** p < 0.01, and *** p < 0.001 vs. the 0 mM sample group by Student’s t-test.
as §2, with “Following treatment, the fluorescence intensity (excitation, 486 nm; emission, 525 nm) of the cell was measured.” left out
Cells were seeded onto 96-well black-wall imaging plates (BD Falcon Labware) for 18–26 h prior to their use in an experiment. […] The cells were rinsed with the buffer, incubated in probenecid or sample for 30 min, and then treated with solution containing the ligand. The Fura-2AM-induced fluorescence intensity (excitation at 340 and 380 nm) was measured at emission wavelength of 510 nm using a computer-controlled filter changer (Lambda DG4; Sutter, San Rafael, CA, USA), an Andor Luca CCD camera (Andor Technology, Belfast, UK), and an inverted fluorescence microscope (IX-71; Olympus, Tokyo, Japan). Images were obtained at 3-s intervals and analyzed using MetaFluor software (Molecular Devices, Sunnyvale, CA, USA).

hTAS2R16 N96T = target: T3, hTAS2R16 N96T (Homo sapiens, UniProt Q9NYV7, N96T); test: Cellular Ca2+ response, cell-based assay in HEK293T cells expressing probenecid-insensitive mutant hTAS2R16 N96T
T3 construct: expressed in transfected cells; host or cells: HEK293T
T3 sequence (Q9NYV7 1-291 N96T): T1 sequence (Q9NYV7 1-291) with N96T
Procedure: as §1, §2

[5] = IC50 in the presence of 10 mM salicin, Table 2, + IMP 0 mM, means ± SEM
[6] = IC50 of umami substances in the presence of 10 mM salicin, Figure 2B, pretreatment with sample, fixed 10 mM salicin, means ± SEM
[7] = Table 3, pretreatment with sample 80 mM
[8] = Table 1, pretreatment with sample 10 mM
[9] = Table 1, pretreatment with sample 30 mM
[10] = Table 1, pretreatment with sample 80 mM
[11] = Table 1, pretreatment with sample 100 mM

Compound: N[C@@H](CCC(=O)O)C(=O)N[C@@H](CCC(=O)O)C(=O)O [Glu-Glu] (H-Glu-Glu-OH)
- IC50 (hTAS2R16 [1]; [5]): 7250 ± 20 µM
- IC50 (hTAS2R16 [1]; [6]): 8620 ± 30 µM

Compound: CCNC(=O)CC[C@H](N)C(=O)O [L-Theanine, γ-glutamylethylamide]
- Maximal Response of salicin, P44T (hTAS2R16 P44T; [7]): 0.56 ΔF/F0
- attenuation of salicin response by pretreatment, P44T mutant (hTAS2R16 P44T; salicin 0.003–30 mM, probenecid 0.3 mM, MSG 80 mM, L-theanine 80 mM): not in cells expressing the two N96T and P44T mutant receptors
- detection threshold (umami taste [2]): 25 mM
- synergistic effect with IMP on suppression of salicin response (hTAS2R16 [1]): produce similar synergistic effects with IMP
- IC50 (hTAS2R16 [1]; [5]): 77330 ± 50 µM
- IC50 (hTAS2R16 [1]; [6]): 62000 µM and 61700 µM
- Maximal Response of salicin (hTAS2R16 [1]; [8]): 0.53 ΔF/F0
- Maximal Response of salicin (hTAS2R16 [1]; [9]): 0.50 ΔF/F0
- Maximal Response of salicin (hTAS2R16 [1]; [10]): 0.43 ΔF/F0
- Maximal Response of salicin (hTAS2R16 [1]; [11]): 0.31 ΔF/F0
- Maximal Response of salicin, WT (hTAS2R16 [1]; [7]): 0.43 ΔF/F0
- mechanism of antagonism at hTAS2R16 (hTAS2R16 [1]): partial insurmountable antagonists
- attenuation of salicin response by pretreatment, WT receptor (hTAS2R16 [1]; salicin 0.003–30 mM, probenecid 0.3 mM, L-theanine 80 mM): significantly attenuated
- detection threshold, times lower than that of MSG (umami taste [3]; L-theanine vs MSG): roughly 36 times
- inhibition of Ca2+ response to arbutin (hTAS2R16 [4]): significantly inhibited
- reduction of intracellular Ca2+ influx evoked by salicin (hTAS2R16 [4]): concentration-dependent reduction
- inhibition of Ca2+ response to phenyl β-D-glucopyranoside (hTAS2R16 [4]): significantly inhibited
- Maximal Response of salicin, N96T (hTAS2R16 N96T; [7]): 0.66 ΔF/F0
- attenuation of salicin response by pretreatment, N96T mutant (hTAS2R16 N96T; salicin 0.003–30 mM, probenecid 0.3 mM, Glu-Glu 6 mM, L-theanine 80 mM): not in cells expressing the two N96T and P44T mutant receptors

Compound: N[C@@H](CCC(=O)O)C(=O)O [MSG, L-glutamic acid monosodium salt hydrate]
- Maximal Response of salicin, P44T (hTAS2R16 P44T; [7]): 0.57 ΔF/F0
- detection threshold (umami taste [2]): 0.7 mM
- umami taste intensity (relative) (umami taste [2]; enhancing umami taste intensity, MSG = 1.0): 1.0
- umami taste threshold (umami taste [2]; human sensory evaluation studies): 30 mg%
- synergistic effect with IMP on suppression of salicin response (hTAS2R16 [1]): produce similar synergistic effects with IMP
- IC50 (hTAS2R16 [1]; [5]): 64670 ± 40 µM
- IC50 (hTAS2R16 [1]; [6]): 51000 µM and 51100 µM
- Maximal Response of salicin (hTAS2R16 [1]; [8]): 0.55 ΔF/F0
- Maximal Response of salicin (hTAS2R16 [1]; [9]): 0.54 ΔF/F0
- Maximal Response of salicin (hTAS2R16 [1]; [10]): 0.49 ΔF/F0
- Maximal Response of salicin (hTAS2R16 [1]; [11]): 0.47 ΔF/F0
- Maximal Response of salicin, WT (hTAS2R16 [1]; [7]): 0.49 ΔF/F0
- mechanism of antagonism at hTAS2R16 (hTAS2R16 [1]): surmountable antagonist
- increase of the EC50 of salicin (hTAS2R16 [1]; sample at highest concentration, 100 mM): 8.5 fold
- umami taste threshold, times lower than Glu-Glu (umami taste [3]; MSG vs Glu-Glu): around 10 times
- inhibition of Ca2+ response to arbutin (hTAS2R16 [4]): significantly inhibited
- reduction of intracellular Ca2+ influx evoked by salicin (hTAS2R16 [4]): concentration-dependent reduction
- inhibition of Ca2+ response to phenyl β-D-glucopyranoside (hTAS2R16 [4]): significantly inhibited
- Maximal Response of salicin, N96T (hTAS2R16 N96T; [7]): 0.65 ΔF/F0

Compound: Gly-Gly
- inhibition of Ca2+ response to arbutin (hTAS2R16 [4]): not
- reduction of intracellular Ca2+ influx evoked by salicin (hTAS2R16 [4]): not
- inhibition of Ca2+ response to phenyl β-D-glucopyranoside (hTAS2R16 [4]): not

Continued, in another order:

- EC50 (hTAS2R16 P44T; Table 3, sample 0 mM, read-out: EC50 of salicin, P44T): 690 µM and 750 µM and 640 µM and 620 µM and 680 µM
- intracellular Ca2+ response induced by ligand, P44T mutant (hTAS2R16 P44T; salicin 0.003–30 mM): induced intracellular Ca^2+ response
- Maximal Response of salicin (hTAS2R16 [1]; Table 1, salicin 0–30 mM, sample 0 mM): 0.51 ΔF/F0 and 0.54 ΔF/F0 and 0.56 ΔF/F0
- Maximal Response of salicin, WT (hTAS2R16 [1]; Table 3, sample 0 mM): 0.54 ΔF/F0 and 0.56 ΔF/F0 and 0.51 ΔF/F0
- EC50 (hTAS2R16 [1]; Table 3, sample 0 mM, read-out: EC50 of salicin, WT): 960 µM and 900 µM and 1040 µM and 1070 µM
- intracellular Ca2+ response induced by ligand, WT receptor (hTAS2R16 [1]; salicin 0.003–30 mM): induced intracellular Ca^2+ response
- intracellular Ca2+ response induced by ligand, N96T mutant (hTAS2R16 N96T; salicin 0.003–30 mM): induced intracellular Ca^2+ response
Compound: OCc1ccccc1O[C@@H]1O[C@H](CO)[C@@H](O)[C@H](O)[C@H]1O [Salicin]
- Maximal Response of salicin, P44T (hTAS2R16 P44T; Table 3, sample 0 mM): 0.61 ΔF/F0 and 0.59 ΔF/F0 and 0.56 ΔF/F0 and 0.62 ΔF/F0
- EC50 (hTAS2R16 [1]; Table 1, salicin 0–30 mM, sample 0 mM, means ± SEM, read-out: EC50 of salicin): 1.04 mM (2×) and 920 µM and 890 µM and 900 µM
- Maximal Response of salicin, N96T (hTAS2R16 N96T; Table 3, sample 0 mM): 0.66 ΔF/F0 and 0.63 ΔF/F0 and 0.68 ΔF/F0 and 0.61 ΔF/F0
- EC50 (hTAS2R16 N96T; Table 3, sample 0 mM, read-out: EC50 of salicin, N96T): 200 µM (2×) and 230 µM and 250 µM and 180 µM

- Ca2+ response of cells expressing TAS2R16 on stimulation with ligand (hTAS2R16 [4]): increase in Ca^2+
Compound: OC[C@H]1O[C@@H](Oc2ccc(O)cc2)[C@H](O)[C@@H](O)[C@@H]1O [arbutin]

- Ca2+ response of cells expressing TAS2R16 on stimulation with ligand (hTAS2R16 [4]): increase in Ca^2+
Compound: OC[C@H]1O[C@@H](Oc2ccccc2)[C@H](O)[C@@H](O)[C@@H]1O [phenyl β-D-glucopyranoside]
